US10172835B2, “Anticancer agent composition” (J-Pharma Co., Ltd., priority 2014, dated 2019)

What was measured:
[1] = tested on: KO99L cells; experiment: Annexin-V / DAPI apoptosis assay, KO99L cells; assay type: cell-based, murine; details: 48 hr
Experimental: Apoptosis assessment was performed by measuring phosphatidyl-serine membrane redistribution via annexin-V-FITC (Invitrogen). Cells (5.0±0.1×10^5 per well; 2.0 mL) were incubated with effectors, and re-suspended in staining solution (110 μL; Annexin-V ( 1/10) and incubated in the dark (15 min, RT). […] Basal apoptosis and necrosis were determined on control untreated cells.

[2] = tested on: KO99L cells; experiment: BrdU incorporation Elisa (proliferation) on KO99L cells; assay type: cell-based, murine; details: 10.0 μM, after 48 h
Experimental: (§1) Two different assays were employed: i) In a 96-well plate format, cells (4.0±0.1×10^4 per well; 100 μL) were incubated with effectors (48 h, 37° C.; n=4 per experiment) and then WST-1 reagent (10 μL; Roche Diagnostics) added to each well of 96-well plates, incubated, and the formazan production was measured at 490 nm; and ii) cells (2.0±0.1×10^4 per well; 100 μL) were incubated with effectors (48 h, 37° C.; n=4 per experiment) and then bromodeoxyuridine reagent (10 μL/well; Roche Diagnostics) was added to each well and incubated (8 h, 37° C.). The cells were then fixed, denatured and incubated with anti-BrdU-conjugated with peroxidase (POD) antibody (100 μL/well). Colorimetric substrate (TMB: tetramethyl-benzidine; 100 μL/well) was added and BrdU incorporation quantified via optical density measurement (450 nm) which corresponds to DNA synthesis and proliferating cells.

[3] = tested on: KO99-RJ cells; experiment: Cell death (PI staining) of KO99-RJ cells; assay type: cell-based, murine; details: 48 h
[4] = tested on: HT-29 cell derived from human large intestine cancer; experiment: Tumor growth in nude mouse SOI model (HT-29 grafted onto wall of large intestine); assay type: in vivo
Excerpt: […] was expressed in a HT-29 cell derived from human large intestine cancer, and which was grafted onto the wall of large intestine of a mouse to produce a metamouse. According to this, the quantity of the size of the tumor could be determined with time with emission intensity. In FIG. 16, the size of tumor in each treatment group was shown with a bar graph. Group 1 is a control group, Groups 2 to 4 are a group in which COM-JP was intraperitoneally administered alone at 3.1, 12.5, and 50 mg/kg weight/day every day for 4 weeks, Group 5 is a group in which CDDP was intraperitoneally administered alone at 2.5 mg/kg/day three times on day 0, day 6, and day 13, Groups 6 to 8 are a group in which Groups 2 to 4 and Group 5 were combined to be administered in combination, and Group 9 is a group in which COM-JP was orally administered at 300 mg/kg/day every day for 4 weeks.

[5] = tested on: 44As3-11 cell derived from human scirrhous stomach cancer; experiment: MTT proliferation of 44As3-11 cells; assay type: cell-based; details: 44As3-11, culture 5 days
Experimental: (§2) The culture in the absence of COM-JP and in the presence of COM-JP with different concentrations in the culture medium of each cancer cell was continued for 5 days. Proliferation activity of the cell on each elapsed day was measured by a MTT method.

[6] = tested on: KO99L cells (tPTEN−/− tumor cell line); experiment: WST-1 cell viability assay on KO99L cells; assay type: cell-based, murine
Experimental: as §1

[7] = tested on: CHOP; experiment: Western blot of CHOP protein levels, KO99L cells; assay type: cell-based, murine
Experimental: (§3) Cell extracts were prepared using a cell lysis buffer (50 mM HEPES, pH 7.4, 150 mM NaCl, 20 mM EDTA, 100 mM NaF, 10 mM Na3VO4, 0.5% nonyl phenoxypolyethoxylethanol (NP40) supplemented with a cocktail of protease inhibitors. After SDS-PAGE separation and transfer to nitrocellulose immunoblotting was performed using the following antibodies against: Akt (Cell Signaling Technologies, #9272), CHOP (#2895), cleaved caspase 3 (#9664), c-Myc (#9402), eIF2a (#9721), 4EBP1 (#9644), LC3A/B (#12741), PARP (#9542), pJnk (T183/Y185) (#9251), pSer235-236-S6RP (#4856), pSer473-Akt (#9271), pSer65-4EBP1 (#9451) and S6RP (#2217); Bax (Sigma-Aldrich, B8429); PUMA (Abcam, ab54288); Bak (Millipore, 06536); ATF4 (Santa Cruz Biotechnologies, sc200), GADD34 (sc8327), Hsp60 (sc-1722), Hsp90 (sc-13119) and XBP1 (sc-7160); ATF6 (Imgenex, IMG-273).

[8] = tested on: Panc-1 cell derived from human pancreatic cancer; experiment: MTT proliferation of Panc-1 cells; assay type: cell-based; details: Panc-1, culture 5 days
Experimental: as §2

[9] = tested on: HT-29 colon cancer cells; details: Reference 43; cited from earlier work
[10] = tested on: human Peripheral Blood Lymphocytes; experiment: Proliferative response of human PBL; assay type: cell-based; details: 1.0-50.0 μM
[11] = tested on: caspase 3; experiment: Western blot of caspase 3 activation and PARP cleavage, KO99L cells; assay type: cell-based, murine; details: 10.0 μM
Experimental: as §3

[12] = tested on: primary T-ALL cells; experiment: Cell viability of human T-ALL primary samples; assay type: cell-based; details: primary T-ALL cells from patients
Experimental: Informed consent was obtained according to institutional guidelines. Heparin-treated blood was obtained from three T-ALL patients and from two healthy donors. Patient lymphoblasts were isolated within 24 hours post collection using Ficoll-Paque PLUS density gradient following vendor recommended procedures (GE Healthcare Life Sciences).
as §1

[13] = tested on: mTORC1 / Akt activation; experiment: Western blot of S6RP, 4EBP1 and Akt phosphorylation, KO99L cells; assay type: cell-based, murine; details: 2.0-24 h; COMPOUND-JP 10.0 μM; MK-2206 5.0 μM; KU0063794 5.0 μM; rapamycin 10.0 nM; L-Asp, Erw 2.5 units/ml; velcade at 24 h
[14] = tested on: c-myc; experiment: Western blot of c-myc levels, KO99L cells; assay type: cell-based, murine; details: COMPOUND-JP 10.0 μM 2.0-24 h; Velcade 8 nM 24 h; KU0063794 10.0 μM; MK-2206 10.0 μM; rapamycin 100 nM
Experimental: as §3

[15] = tested on: normal murine thymocytes; experiment: WST-1 cell viability of normal thymocytes; assay type: cell-based
Experimental: as §1

[16] = tested on: Jurkat T-ALL line; experiment: Cell viability of Jurkat human T-ALL cells; assay type: cell-based
Experimental: as §1

Nc1cc(COc2c(Cl)cc(C[C@H](N)C(=O)O)cc2Cl)c2oc(-c3ccccc3)nc2c1 [COMPOUND-JP, O-(5-amino-2-phenylbenzoxazole-7-yl)methyl-3,5-dichloro-L-tyrosine]
levels of apoptosis (annexin-V+ and annexin-V+/DAPI+) compared to control ([1]; 10.0 μM): 2.8 fold
levels of apoptosis (annexin-V+ and annexin-V+/DAPI+) compared to control ([1]; 20.0 μM): 3.8 fold
diminished cell cycling (proliferation) [2]: 75%
cell death [3]: far less efficient
efficacy on tumor growth, single administration ([4]; COM-JP i.p. 3.1, 12.5, 50 mg/kg/day 4 weeks, CDDP i.p. 2.5 mg/kg/day day 0, 6, 13): not recognized
increase of the tumor ([4]; Group 9: orally 300 mg/kg/day every day for 4 weeks, vs untreated control): more significantly decreased
proliferation activity [5]: dose-dependent decrease
cell viability ([6]; KO99L cells, 2.5-10.0 μM, 48 h): dose-dependent decrease
reversal of the viability decrease by Essential Amino Acids (EAA) in the medium ([6]; KO99L cells, 2.5-10.0 μM, NEAA no rescue): partially reversed
cytotoxicity at 40 µM ([6]; Mus musculus, KO99-S (parental KO99L), 40 μM, 48 h, read-out: decrease in cell viability): 95 to 100%
IC50 ([6]; Mus musculus, KO99L tPTEN−/− cells, 48 h, read-out: IC50, cell viability (drug concentration to kill half of the cells)): 2.4 µM
COMPOUND-JP mediated CHOP induction upon EAA supplementation ([7]; 10 μM, complete medium plus EAA): prevented CHOP induction
CHOP expression, time course ([7]; FIG. 5A, COMPOUND-JP 10.0 μM, L-Asp, Erw 2.5 units/ml, 2.0-24 h): rapidly induced CHOP expression
CHOP induction ([7]; FIG. 5B, COMPOUND-JP 5.0 and 10.0 μM, L-Asp 2.5 units/ml, rapamycin 10.0 nM, MK-2206 10.0 μM, KU0063794 10.0 μM): profound and COMPOUND-JP dose dependent induction
proliferation activity [8]: dose-dependent decrease
growth of HT-29 colon cancer cells transplanted in nude mice [9]: reduce the growth
PBL cell proliferation [10]: did not significantly alter
caspase 3 cleavage ([11]; 48 hr): essentially all cellular caspase 3 was processed
caspase 3 cleavage ([11]; four-to-six hour post addition): caspase 3 cleavage could be observed
PARP cleavage ([11]; 24 h): fully cleaved
cell viability (COMPOUND-JP sensitivity) [12]: concentration dependent
4EBP1 phosphorylation [13]: no effect
Akt phosphorylation (serine 473) / activation [13]: interfered with Akt activation
S6RP phosphorylation (mTORC1 activation) [13]: affect mTORC1 activation as early as 2.0 h
c-myc protein level [14]: decreased
toxicity in normal murine thymocytes [15]: non-toxic
cell survival [16]: alter cell survival
